Results reported in US20140072662A1, “Andrographis Paniculata Compositions and Methods for Treatment of Addictions” (Omeros Corporation, priority 2012, published 2014).
“Also recorded” adds a separate entry of the source. Like-named read-outs stand apart in the source and are kept apart here.

What was measured:
GAL-4-PPAR-gamma chimera = target: T1, GAL-4-PPAR-gamma chimera (Homo sapiens, UniProt P37231); conditions: compounds isolated from EtOH extract of licorice; cited from earlier work
T1 construct: GAL-4 (fusion partner of the chimera)
T1 sequence (P37231 with tags, fused parts or gaps limits assumed): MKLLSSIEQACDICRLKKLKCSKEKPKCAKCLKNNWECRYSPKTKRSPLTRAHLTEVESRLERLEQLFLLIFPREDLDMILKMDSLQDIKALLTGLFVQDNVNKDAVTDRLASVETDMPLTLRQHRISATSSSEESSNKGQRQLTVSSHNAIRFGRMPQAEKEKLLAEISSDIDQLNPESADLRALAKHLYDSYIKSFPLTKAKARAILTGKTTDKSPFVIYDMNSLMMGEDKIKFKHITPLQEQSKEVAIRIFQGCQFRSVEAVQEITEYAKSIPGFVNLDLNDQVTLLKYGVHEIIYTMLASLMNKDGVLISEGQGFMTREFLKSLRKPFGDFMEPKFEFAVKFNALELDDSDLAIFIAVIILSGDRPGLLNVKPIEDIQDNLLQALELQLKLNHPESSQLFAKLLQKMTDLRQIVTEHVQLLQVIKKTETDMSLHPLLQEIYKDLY

PPARγ [1] = target: T2, PPARγ (Mus musculus, UniProt P37238); conditions: 3T3-L1 cells; cited from earlier work
T2 construct: host or cells: 3T3-L1
T2 sequence (P37238 1-505): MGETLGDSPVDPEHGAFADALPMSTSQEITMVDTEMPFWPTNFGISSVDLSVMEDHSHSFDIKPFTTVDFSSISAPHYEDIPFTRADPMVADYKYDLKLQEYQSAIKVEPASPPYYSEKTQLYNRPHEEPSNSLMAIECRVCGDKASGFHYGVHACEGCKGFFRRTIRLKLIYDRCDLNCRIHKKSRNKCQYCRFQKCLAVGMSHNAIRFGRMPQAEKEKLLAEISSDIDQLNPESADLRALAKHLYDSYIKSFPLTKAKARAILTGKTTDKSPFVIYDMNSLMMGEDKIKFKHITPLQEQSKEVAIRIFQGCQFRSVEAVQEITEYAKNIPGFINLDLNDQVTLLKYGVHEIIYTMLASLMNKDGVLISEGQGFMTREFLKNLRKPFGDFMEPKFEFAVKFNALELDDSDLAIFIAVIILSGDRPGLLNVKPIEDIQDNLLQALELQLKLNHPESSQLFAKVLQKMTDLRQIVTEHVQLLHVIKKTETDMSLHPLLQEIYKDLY

PPAR α = target: T3, PPAR α (Mus musculus, UniProt P23204); conditions: 3T3-L1 cells; cited from earlier work
T3 construct: host or cells: 3T3-L1
T3 sequence (P23204 1-468): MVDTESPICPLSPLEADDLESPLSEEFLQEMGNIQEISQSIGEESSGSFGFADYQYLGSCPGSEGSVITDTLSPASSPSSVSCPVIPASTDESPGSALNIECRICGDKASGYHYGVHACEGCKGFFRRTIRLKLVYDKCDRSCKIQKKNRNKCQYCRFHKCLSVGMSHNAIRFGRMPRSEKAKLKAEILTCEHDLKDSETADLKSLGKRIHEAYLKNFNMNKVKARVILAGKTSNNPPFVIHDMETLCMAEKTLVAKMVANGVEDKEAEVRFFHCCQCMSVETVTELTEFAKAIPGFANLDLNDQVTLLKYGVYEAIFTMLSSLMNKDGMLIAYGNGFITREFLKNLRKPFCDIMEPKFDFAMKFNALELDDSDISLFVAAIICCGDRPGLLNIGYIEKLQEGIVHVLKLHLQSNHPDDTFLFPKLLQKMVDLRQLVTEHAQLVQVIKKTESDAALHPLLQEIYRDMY

[2] = target: T4, PPAR δ ligand binding domain (Homo sapiens, UniProt Q03181); conditions: cited from earlier work
T4 sequence (Q03181 211-439 limits assumed): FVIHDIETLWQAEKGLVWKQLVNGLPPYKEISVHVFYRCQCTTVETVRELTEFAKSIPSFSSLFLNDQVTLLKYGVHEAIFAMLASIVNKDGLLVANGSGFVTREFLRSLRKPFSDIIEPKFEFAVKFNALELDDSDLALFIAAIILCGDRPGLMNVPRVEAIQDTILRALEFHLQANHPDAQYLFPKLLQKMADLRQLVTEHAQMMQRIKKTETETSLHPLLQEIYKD

[3] = target: PPAR γ ligand binding domain (Homo sapiens, UniProt P37231); conditions: cited from earlier work
PPARγ [4] = target: T2, PPARγ; conditions: 3T3-L1 preadipocytes; cited from earlier work
PPARγ [5] = target: T5, PPARγ (Homo sapiens, UniProt P37231); conditions: cited from earlier work
T5 sequence (P37231 1-505): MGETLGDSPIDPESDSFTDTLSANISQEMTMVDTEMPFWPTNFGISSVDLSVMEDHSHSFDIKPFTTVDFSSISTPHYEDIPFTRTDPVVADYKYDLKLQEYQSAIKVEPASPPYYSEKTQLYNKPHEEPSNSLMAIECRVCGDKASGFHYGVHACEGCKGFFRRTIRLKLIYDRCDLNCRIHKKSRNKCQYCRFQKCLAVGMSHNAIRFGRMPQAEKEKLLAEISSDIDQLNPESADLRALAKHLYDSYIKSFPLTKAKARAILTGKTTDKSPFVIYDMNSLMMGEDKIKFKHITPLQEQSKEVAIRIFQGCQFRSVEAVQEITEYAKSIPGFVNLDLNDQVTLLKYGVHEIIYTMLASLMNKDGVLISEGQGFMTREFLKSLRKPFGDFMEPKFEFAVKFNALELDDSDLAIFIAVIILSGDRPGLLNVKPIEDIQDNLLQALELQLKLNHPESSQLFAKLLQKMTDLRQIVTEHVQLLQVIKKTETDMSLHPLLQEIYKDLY

PPARγ [6] = target: T5, PPARγ; conditions: cited from earlier work; remark: listed apart in the source
msP rats = assay: Central PPAR antagonist GW9662 on andrographolide-induced reduction of alcohol intake in msP rats; format: in vivo, rat
Protocol: GW9662, purchased from Tocris (Bristol, UK), was dissolved in 10% DMSO and 3% Tween 80 and the final volume (5 μg/μl) was adjusted adding distilled water. GW9662 was injected ICV in a volume of 1 μl per rat by means of a stainless-steel injector 2.5 mm longer than the guide cannula, so that its tip protruded into the ventricle.
A 22-gauge guide cannula for intracerebroventricular (ICV) drug injections was stereotaxically implanted into the lateral cerebroventricle with the following coordinates: anteroposterior (AP)=1.0; lateral (L)=1.8; ventral (V)=2.0 with reference to bregma.
A widely used method for testing fluid preference is the two-bottle choice paradigm, in which water and 10% (v/v) alcohol solution were offered in graduated drinking tubes equipped with metallic drinking spouts and their consumption was measured by reading the volume consumed from the graduated tubes. Food intake was measured by weighing the food containers and taking into account spillage. Alcohol, water and food intakes are expressed as g/kg to reduce the influence of differences in body weight.
To examine whether the effect of andrographolide on alcohol intake is mediated by brain PPAR receptors, another group of msP rats (N=31) was treated ICV with 5 μg/rat of the PPAR antagonist GW9662 and then injected with andrographolide (10 mg/kg) or its vehicle. In a between-subject design each group of animals (N=7-8/group) received a different drug dose for 6 consecutive days. GW9662 or its vehicle were administered twice daily at 12 hours and 30 minutes before the beginning of the dark period of the light-dark cycle. Andrographolide was given immediately after GW9662 administrations.
Alcohol, water, and food intake was recorded at 0.5, 2, 8 and 24 hours from the moment that alcohol was made available.

Row | Molecule | PPAR-gamma ligand-binding activity (GAL-4-PPAR-gamma chimera) | further results
1 | CC1(C)C=Cc2c(ccc(-c3coc4cc(O)ccc4c3=O)c2O)O1 [glabrone] | significant PPAR-gamma ligand-binding activity | 
2 | CC1(C)C=Cc2c(ccc3cc(-c4ccc(O)cc4O)c(=O)oc23)O1 [kanzonol W] | significant PPAR-gamma ligand-binding activity | 
3 | CC(C)=CCc1c(O)cc(O)c2c(=O)c(-c3ccc(O)c(O)c3)coc12 [gancaonin L] | significant PPAR-gamma ligand-binding activity | 
4 | CC(C)=CCc1cc([C@@H]2CC(=O)c3ccc4c(c3O2)C=CC(C)(C)O4)ccc1O [shinflavanone] | significant PPAR-gamma ligand-binding activity | 
5 | licoflavanone A | significant PPAR-gamma ligand-binding activity | 
6 | CCCC\C=C/C=C/C=C\CCCCCCCC(=O)O [PUA, punicic acid] |  | PPAR γ reporter activity (PPARγ [1]): dose-dependent increase; PPAR α reporter activity (PPAR α): dose-dependent increase; binding to PPAR δ ligand binding domain [2]: bind; binding to PPAR γ ligand binding domain [3]: bind
7 | CC1=CC(=O)CC(C)(C)[C@@]1(O)/C=C/C(C)=C\C(=O)O [abscisic acid] |  | activity of PPARγ (PPARγ [4]): increase the activity of PPARγ
8 | CC(C)=CCc1cc([C@@H]2CC(=O)c3ccc(O)c(CC=C(C)C)c3O2)ccc1O [glabrol] | significant PPAR-gamma ligand-binding activity | 
9 | COc1ccc([C@@H]2COc3cc(O)ccc3C2)c(O)c1O [(3R)-2′,3′,7-trihydroxy-4′-methoxyisoflavan] | significant PPAR-gamma ligand-binding activity | 
10 | O=c1c(-c2ccc(O)cc2)coc2cc(O)cc(O)c12 [genistein] |  | activation of PPARγ (PPARγ [5]): potent activators of PPARγ
11 | COc1ccc(-c2coc3cc(O)cc(O)c3c2=O)cc1 [biochanin A] |  | activation of PPARγ (PPARγ [5]): potent activators of PPARγ
12 | CC(C)=CCc1cc([C@H]2Oc3cc(O)ccc3C[C@H]2O)ccc1O [(2R,3R)-3,4′,7-trihydroxy-3′-prenylflavane] | significant PPAR-gamma ligand-binding activity | 
13 | CC(C)=CCC/C(C)=C\CO [nerol] |  | activation of PPARγ (PPARγ [6]): not
14 | CC1(C)C=Cc2c(ccc3c2OC[C@@H](c2cc(C=O)c(O)cc2O)C3)O1 [5′-formylglabridin] | significant PPAR-gamma ligand-binding activity | 
15 | CC(C)=CCc1c(O)ccc([C@@H]2COc3c(ccc(O)c3CC=C(C)C)C2)c1O [kanzonol X] | significant PPAR-gamma ligand-binding activity | 
16 | COc1cc(O)ccc1/C=C/C(=O)c1ccc(O)cc1 [echinatin] | significant PPAR-gamma ligand-binding activity | 
17 | CC1(C)C=Cc2c(ccc3c2OC[C@H]2c4ccc(O)cc4O[C@@H]32)O1 [shinpterocarpin] | significant PPAR-gamma ligand-binding activity | 
18 | CC(C)=CCCC(C)CCO (stereo not drawn) [Citronellol, citronellol] |  | activation of PPARγ (PPARγ [6]): activate PPARγ
19 | O=C(Nc1ccccc1)c1cc([N+](=O)[O-])ccc1Cl [GW9662] |  | alcohol drinking (msP rats; GW9662 5 μg/rat ICV alone, twice daily, 6 days, p>0.05): no similar effect; blockade of the andrographolide effect on alcohol drinking (msP rats; GW9662 5 μg/rat ICV given before andrographolide 10 mg/kg): blocked the effect of andrographolide at 8 and 24 hours starting from the third day of treatment; also recorded: completely prevents the andrographolide effect on alcohol drinking
20 | CC(C)=CCC/C(C)=C/CO [geraniol] |  | activation of PPARγ (PPARγ [6]): activate PPARγ
